The values below are quoted from earlier work in patent US20030064909A1, “Laundry detergent and/or fabric care compositions comprising a transferase” (The Procter & Gamble Company, priority 1998, published 2003).

SMILES strings stand for the structures.

For the compound `OCCOc1ccccc1` [2-phenoxyethanol], the solubility in water result is reported as “about 2.67%”.

Consider `OCCc1ccccc1` [2-phenylethanol], for which the solubility in water entry is on record as “about 2%”.

Take `O=[N+]([O-])C1(Br)COCOC1` [Bronidox L, 5-bromo-5-nitro-1,3-dioxane]: the solubility in water result is on record as “about 0.46%”.

As to `O=[N+]([O-])C(Br)(CO)CO` [Bronopol, 2-bromo-2-nitropropane-1,3-diol], the solubility in water entry is recorded as “about 25%”.

Regarding `CC1(C)C(=O)N(CO)C(=O)N1CO` [DMDM hydantoin, 1,3-bis(hydroxymethyl)-5,5-dimethyl-2,4-imidazolidinedione], the solubility in water entry is listed as “more than 50%”.

Take `ClC=CC[N+]12CN3CN(CN(C3)C1)C2.[Cl-]` [Dowicil 200, 1-(3-Chlorallyl) -3,5,7-triaza-1-azoniaadamantane chloride]: the “solubility in water” value was “freely soluble in water”.

Consider `OCc1ccccc1` [benzyl alcohol], for which the solubility in water result is given as “about 4%”.

With `[H]/N=C(\N/C(=N/[H])NCCCCCCNC(=N)NC(=N)Nc1ccc(Cl)cc1)Nc1ccc(Cl)cc1` [chlorhexidine diacetate, 1,1′-hexamethylene bis(5-(p-chlorophenyl)biguanide), reference compound], the solubility in water result is “about 1.8%”.

Turning to `[H]/N=C(\N/C(=N/[H])NCCCCCCNC(=N)NC(=N)Nc1ccc(Cl)cc1)Nc1ccc(Cl)cc1` [chlorhexidine digluconate, 1,1′-hexamethylene bis(5-(p-chlorophenyl)biguanide), reference compound], the solubility in water entry is recorded as “about 70%”.

On to `CC(C)(O)C(Cl)(Cl)Cl` [chlorobutanol, 1,1,1-Trichloro-2-methylpropan-2-ol, reference compound], for which the solubility in water entry is recorded as “about 0.8%”.

As for `[Na+].[O-][n+]1ccccc1[S-]` [sodium pyrithione], the solubility in water result is reported as “about 50%”.
